The source of these data is patent publication US10899758B2, “Inhibitors of the menin-MLL interaction” (Vitae Pharmaceuticals, LLC, priority 2016, dated 2021).

In general, IC50 refers to the concentration that gives 50% inhibition. Low readings indicate higher potency, high ones lower potency.

This experiment concerns the target T1, menin/MLL binding (biotinylated wild-type or mutated menin and MLL-AF9 fusion protein) (Homo sapiens, UniProt O00255).
T1 construct: biotinylated (1) wild-type menin or (2) mutated menin (described in Nature (2012) Vol. 482, pp. 542-548); fused on or other part: Biotin attached chemically (Sulfo-NHS-Biotin); no fused second protein is printed for menin
T1 sequence (O00255 1-459 limits assumed): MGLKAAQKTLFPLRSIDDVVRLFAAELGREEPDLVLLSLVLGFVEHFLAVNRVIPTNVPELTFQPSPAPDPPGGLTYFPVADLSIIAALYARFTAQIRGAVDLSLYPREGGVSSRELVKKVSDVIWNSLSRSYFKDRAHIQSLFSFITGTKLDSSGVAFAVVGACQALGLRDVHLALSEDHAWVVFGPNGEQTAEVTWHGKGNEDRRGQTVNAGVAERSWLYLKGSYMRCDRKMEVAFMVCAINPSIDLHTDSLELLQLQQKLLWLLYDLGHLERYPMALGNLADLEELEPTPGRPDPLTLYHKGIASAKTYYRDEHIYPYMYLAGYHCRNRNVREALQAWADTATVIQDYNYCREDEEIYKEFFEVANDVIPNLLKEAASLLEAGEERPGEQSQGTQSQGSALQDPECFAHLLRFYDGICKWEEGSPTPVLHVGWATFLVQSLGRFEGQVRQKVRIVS
Kind of experiment: Assay 1 (Binding Assay): AlphaLISA menin/MLL binding. Particulars: 5 nM biotinylated menin, MLL-AF9-FLAG lysate. How it is done: Potencies of inhibitor compounds against menin/MLL binding were assessed by AlphaLISA assay using biotinylated (1) wild-type menin or (2) mutated menin (described in Nature (2012) Vol. 482, pp. 542-548) and MLL-AF9 fusion protein bearing a FLAG epitope at its C-terminus. Menin proteins were expressed in E. coli and covalently modified with biotin using EZ-Link™ Sulfo-NHS-Biotin (ThermoFisher Cat. No. 21217) according to manufacturer's protocol. MLL1-1,396 fused to AF91-92 and the C-terminal FLAG peptide was expressed in HEK293 cells and used as a lysate cleared at 21,000×g for 10 min.
Compounds (2 μL of solutions in DMSO) were dispensed in white 96-well half-area plates (Corning Cat. No. 3693) and incubated for 30 min at RT with 5 nM biotinylated menin and appropriate amount of MLL-AF9-FLAG lysate in 40 μL of 50 mM Tris-HCl buffer pH 7.4 containing 5% (v/v) DMSO, 50 mM NaCl, 0.01% (w/v) bovine serum albumin (BSA) and 1 mM DTT. To this incubation mixture, 40 μl of AlphaLISA anti-FLAG acceptor (PerkinElmer Cat. No. AL112C) and streptavidin donor (PerkinElmer Cat. No. 6760002) beads (10 μg/mL each) was added and incubation continued at RT for 60 min. Alpha (amplified luminescent proximity homogeneous assay) signal was measured on an Envision multi-label plate reader at the end of the incubation. All steps were conducted under dim fluorescent light.
These percent inhibition values were regressed against compound concentrations in the assay using four parameter logit non-linear curve fitting (XLFit, IDBS). The IC50 values were derived from the curve fitting as inflection points on the dose-response curves and are set out in Table 14 below.
`CC(C)N(C)C(=O)c1cc(F)ccc1-n1cc(C2CCCN(C(=O)OC(C)(C)C)C2)c2ccncc21` (stereo not drawn) [Int. 2, tert-butyl 3-(1-(4-fluoro-2-(isopropyl(methyl)carbamoyl)phenyl)-1H-pyrrolo[2,3-c]pyridin-3-yl)piperidine-1-carboxylate] came in with an IC50 of at least 1000 nM.
Regarding `CC(C)N(C)C(=O)c1cc(F)ccc1-n1cc(C2CCC(N3CCC(O)C3)CC2)c2ccncc21` (single isomer, unassigned) [Example 95A, 5-fluoro-2-(3-(4-(3-hydroxypyrrolidin-1-yl)cyclohexyl)-1H-pyrrolo[2,3-c]pyridin-1-yl)-N-isopropyl-N-methylbenzamide], the IC50 is below 100 nM.
In turn, `CC(C)N(C)C(=O)c1cc(F)ccc1-n1cc(C2CCN(Cc3ccc(S(C)(=O)=O)cc3)CC2)c2ccncc21` [Example 13, 5-fluoro-N-isopropyl-N-methyl-2-(3-(1-(4-(methylsulfonyl)benzyl)piperidin-4-yl)-1H-pyrrolo[2,3-c]pyridin-1-yl)benzamide] had an IC50 of 100 to 1000 nM.
Compound `Fc1ccc(-n2cc(C3CCN(CCc4ccccc4)CC3)c3ccncc32)cc1` [Example 40, 1-(4-fluorophenyl)-3-(1-phenethylpiperidin-4-yl)-1H-pyrrolo[2,3-c]pyridine] registered an IC50 of 100 to 1000 nM.
On to `CC(C)N(C)C(=O)c1cc(F)ccc1-n1c(=O)n(C2CCN(Cc3ccc(F)cc3)CC2)c2ccncc21` [Example 83, 5-fluoro-2-(1-(1-(4-fluorobenzyl)piperidin-4-yl)-2-oxo-1,2-dihydro-3H-imidazo[4,5-c]pyridin-3-yl)-N-isopropyl-N-methylbenzamide], for which the IC50 is 100 to 1000 nM.
The figure for `Fc1ccc(-n2cc(C3CCN(Cc4ccc5[nH]ccc5c4)CC3)c3ncncc32)cc1` [Example 69, 7-(1-((1H-indol-5-yl)methyl)piperidin-4-yl)-5-(4-fluorophenyl)-5H-pyrrolo[3,2-d]pyrimidine] is 100 to 1000 nM; for `CC(C)N(C)C(=O)c1cc(F)ccc1-n1cc([C@H]2CC[C@H](N3CC(CO)C3)CC2)c2ccncc21` [Example 98, 5-fluoro-2-(3-(trans-4-(3-(hydroxymethyl)azetidin-1-yl)cyclohexyl)-1H-pyrrolo[2,3-c]pyridin-1-yl)-N-isopropyl-N-methylbenzamide] it is below 100 nM; for `CC(=O)Nc1ccc(CN2CCC(c3cn(-c4ccc(F)cc4C(=O)N(C)C(C)C)c4cnccc34)CC2)cc1` [Example 22, 2-(3-(1-(4-acetamidobenzyl)piperidin-4-yl)-1H-pyrrolo[2,3-c]pyridin-1-yl)-5-fluoro-N-isopropyl-N-methylbenzamide] it is below 100 nM.
The figure for `CC(C)N(C)C(=O)c1cc(F)ccc1-n1cc(C2CCC3(CC2)CN(C)C3)c2ccncc21` [Example 51A, 5-fluoro-N-isopropyl-N-methyl-2-(3-(2-methyl-2-azaspiro[3.5]nonan-7-yl)-1H-pyrrolo[2,3-c]pyridin-1-yl)benzamide] is 100 to 1000 nM.
On to `CC(C)N(C)C(=O)c1cc(F)ccc1-n1cc([C@H]2CC[C@H](NC(=O)C3CCCCC3)CC2)c2ccncc21` [Example 130, 2-(3-(trans-4-(cyclohexanecarboxamido)cyclohexyl)-1H-pyrrolo[2,3-c]pyridin-1-yl)-5-fluoro-N-isopropyl-N-methylbenzamide], for which the IC50 is at least 1000 nM.
In the case of `CC(C)N(C)C(=O)c1cc(F)ccc1-n1cc([C@H]2CC[C@@H](N3CCC(C(=O)O)CC3)CC2)c2ccncc21` [Example 120, 1-(cis-4-(1-(4-fluoro-2-(isopropyl(methyl)carbamoyl)phenyl)-1H-pyrrolo[2,3-c]pyridin-3-yl)cyclohexyl)piperidine-4-carboxylic acid], the IC50 fell in the range of 100 to 1000 nM.
`CC(C)N(C)C(=O)c1cc(F)ccc1-n1cc(C2CCN(C(=O)Cc3ccccc3)CC2)c2ccncc21` [Example 133, 5-fluoro-N-isopropyl-N-methyl-2-(3-(1-(2-phenylacetyl)piperidin-4-yl)-1H-pyrrolo[2,3-c]pyridin-1-yl)benzamide] displayed an IC50 of 100 to 1000 nM.
